This passage reports inhibition of growth results from paper PMC7216583 (Parasites & Vectors, 2020).

Structures can show the parent of a compound that is named as a salt. Where two headings read alike, the source gives them in different places.

The subject of this assay is Toxoplasma gondii RH-2F tachyzoites. Put plainly: microbe, parasite or virus in culture. Conditions: 72 h.
[1] abbreviates: read-out: Parasite inhibition (%) mean, preliminary screen of compound library, mean.
[2] abbreviates: read-out: Parasite inhibition (%) mean.
Where [3] appears, read: read-out: Parasite inhibition (%) mean, preliminary screen, mean.

`O=C(O)CCCCC(CCSCc1ccccc1)SCc1ccccc1` (stereo not shown) [CPI-613]: the inhibition of growth at 5 µM under setting [1] came out at 31.1%.

Turning to `C#Cc1cccc(Nc2ncnc3cc(OC)c(OCCCCCCC(=O)NO)cc23)c1` [CUDC-101], the inhibition of growth at 5 µM under setting [2] turned out to be 46.2%. As for `O=C(O)c1ccc2c(c1)nc(Nc1cccc(Cl)c1)c1ccncc12` [CX-4945 (Silmitasertib)], the inhibition of growth at 5 µM under setting [1] was found to be 1.5%. Regarding `CO[C@H]1C(=O)[C@@]2(C)[C@H]([C@@H](OC(=O)c3ccccc3)[C@@]3(O)C[C@H](OC(=O)[C@H](O)[C@@H](NC(=O)OC(C)(C)C)c4ccccc4)C(C)=C1C3(C)C)[C@]1(OC(C)=O)CO[C@@H]1C[C@H]2OC` [Cabazitaxel (Jevtana)], the inhibition of growth at 5 µM under setting [1] was determined as 2.3%. In the case of `Nc1nc(=O)c2c([nH]1)NC[C@H](CNc1ccc(C(=O)N[C@@H](CCC(=O)O)C(=O)O)cc1)N2C=O` [Calcium levofolinate (Calcium Folinate)], the inhibition of growth at 5 µM under setting [1] stood at 0.1%.

Turning to `CN1C2=CC(=O)/C(=N\NC(N)=O)C=C2CC1S(=O)(=O)O` (stereo not shown) [Carbazochrome sodium sulfonate], the inhibition of growth at 5 µM under setting [1] is 1.2%.

For `CO/N=C(\C(=O)N[C@@H]1C(=O)N2C(C(=O)OCOC(=O)C(C)(C)C)=C(/C=C\c3scnc3C)CS[C@H]12)c1csc(N)n1` [Cefditoren pivoxil], the inhibition of growth at 5 µM under setting [1] turned out to be 0.2%.

Regarding `CO/N=C(\C(=O)N[C@@H]1C(=O)N2C(C(=O)O)=C(Cn3ccc(=N)n3CCO)CS[C@H]12)c1csc(N)n1` [Cefoselis sulfate], under setting [1], the inhibition of growth at 5 µM came out at 12.1%.

In the case of `C/C=C(\C)C(=O)N[C@@H](c1ccccc1)[C@@H](O)C(=O)O[C@H]1C[C@@]2(O)[C@@H](OC(=O)c3ccccc3)[C@@H]3[C@]4(OC(C)=O)CO[C@@H]4C[C@H](O)[C@@]3(C)C(=O)[C@H](OC(C)=O)C(=C1C)C2(C)C` [Cephalomannine], under setting [2], the inhibition of growth at 5 µM was 22.4%. Turning to `Cc1cc(C2CCCCC2)n(O)c(=O)c1` [Ciclopirox (Penlac)], the inhibition of growth at 5 µM under setting [1] stood at 33.4%.

Regarding `CCOC(=O)[C@H](CCc1ccccc1)N[C@H]1CCCN2CCC[C@H](C(=O)O)N2C1=O` [Cilazapril monohydrate (Inhibace)], under setting [3], the inhibition of growth at 5 µM amounted to 11.9%.

Turning to `COc1cc(/C=C/C(=O)N2CCN(CC(=O)N3CCCC3)CC2)cc(OC)c1OC` [Cinepazide maleate], under setting [1], the inhibition of growth at 5 µM was 1.5%.

For `COc1ccc(C[C@@H]2c3cc(OC)c(OC)cc3CC[N@+]2(C)CCC(=O)OCCCCCOC(=O)CC[N@@+]2(C)CCc3cc(OC)c(OC)cc3[C@H]2Cc2ccc(OC)c(OC)c2)cc1OC` [Cisatracurium besylate (Nimbex)], the inhibition of growth at 5 µM under setting [3] stood at 4.5%.

Consider `CCCC(=O)OCOC(=O)C1=C(C)NC(C)=C(C(=O)OC)C1c1cccc(Cl)c1Cl` (stereo not shown) [Cleviprex (Clevidipine)], for which the inhibition of growth at 5 µM under setting [3] is 23.8%.

`COC(=O)[C@H](c1ccccc1Cl)N1CCc2sccc2C1` [Clopidogrel (Plavix)]: the inhibition of growth at 5 µM under setting [2] is -0.4%. For the molecule `Cc1onc(-c2ccccc2Cl)c1C(=O)N[C@@H]1C(=O)N2[C@@H](C(=O)O)C(C)(C)S[C@@H]12` [Cloxacillin sodium (Cloxacap)], the inhibition of growth at 5 µM under setting [1] worked out at 0.2%. Take `CC(C)c1nc(CN(C)C(=O)N[C@@H](CCN2CCOCC2)C(=O)N[C@H](CC[C@H](Cc2ccccc2)NC(=O)OCc2cncs2)Cc2ccccc2)cs1` [Cobicistat (GS-9350)]: the inhibition of growth at 5 µM under setting [1] was 0.8%. For the molecule `Cc1nc2c([nH]1)-c1ccccc1N(C(=O)c1ccc(NC(=O)c3ccccc3-c3ccccc3)cc1)CC2` [Conivaptan HCl (Vaprisol)], the inhibition of growth at 5 µM under setting [1] amounted to 6.6%. With `CC(=O)OCC(=O)[C@]1(O)CC[C@H]2[C@@H]3CCC4=CC(=O)CC[C@]4(C)[C@@H]3C(=O)C[C@@]21C` [Cortisone acetate (Cortone)], the inhibition of growth at 5 µM under setting [1] turned out to be 44.8%. For the molecule `N#CCNC(=O)c1ccc(-c2ccnc(Nc3ccc(N4CCOCC4)cc3)n2)cc1` [Cyt387], the inhibition of growth at 5 µM under setting [1] stood at 28.9%. Regarding `OC[C@@H](O)[C@@H](O)[C@H](O)[C@H](O)CO` [D-Mannitol (Osmitrol)], under setting [1], the inhibition of growth at 5 µM is 0.2%.

Turning to `CNC(=O)c1cc(Oc2ccc(NC(=O)Nc3cc(C(C)(C)C)nn3-c3ccc4ncccc4c3)c(F)c2)ccn1` [DCC-2036 (Rebastinib)], under setting [1], the inhibition of growth at 5 µM amounted to 25.5%.

Take `Cc1ccc2c(=O)c3cccc(CC(=O)O)c3oc2c1C` [DMXAA (ASA404)]: the inhibition of growth at 5 µM under setting [3] is -33.6%. As for `CN(C)/N=N/c1[nH]cnc1C(N)=O` [Dacarbazine (DTIC-Dome)], the inhibition of growth at 5 µM under setting [3] stood at 5.8%.

With `CN(C)[C@@H](CCOc1cccc2ccccc12)c1ccccc1` [Dapoxetine HCl (Priligy)], the inhibition of growth at 5 µM under setting [3] was 0.8%. Turning to `CN(C)[C@@H](CCOc1cccc2ccccc12)c1ccccc1` [Dapoxetine hydrochloride (Priligy)], the inhibition of growth at 5 µM under setting [1] was -0.2%. Take `Cc1nc(Nc2ncc(C(=O)Nc3c(C)cccc3Cl)s2)cc(N2CCN(CCO)CC2)n1` [Dasatinib (BMS-354825)]: under setting [3], the inhibition of growth at 5 µM amounted to 10.5%.

Turning to `O=C(O)c1ccc(-n2nc(-c3ccccc3O)nc2-c2ccccc2O)cc1` [Deferasirox (Exjade)], under setting [1], the inhibition of growth at 5 µM was -0.6%. Take `Cc1cccc(Cc2c[nH]cn2)c1C` [Detomidine HCl]: the inhibition of growth at 5 µM under setting [3] worked out at 60.4%. Regarding `O=C[C@H](O)[C@@H](O)[C@H](O)[C@H](O)CO` [Dextrose (D-glucose)], under setting [1], the inhibition of growth at 5 µM was -33.7%.

Regarding `CCCCOc1cc(C(=O)NCCN(CC)CC)c2ccccc2n1` [Dibucaine (Cinchocaine) HCl], under setting [1], the inhibition of growth at 5 µM was determined as 8.9%. On to `O=C(O)Cc1ccccc1Nc1c(Cl)cccc1Cl` [Diclofenac Diethylamine], for which the inhibition of growth at 5 µM under setting [1] is -21.2%. For the molecule `C[C@]12CCC3=C4CCC(=O)C=C4CC[C@H]3[C@@H]1CC[C@@]2(O)CC#N` [Dienogest], under setting [3], the inhibition of growth at 5 µM stood at 12%. As to `COc1ccc([C@@H]2Sc3ccccc3N(CCN(C)C)C(=O)[C@@H]2OC(C)=O)cc1` [Diltiazem HCl (Tiazac)], under setting [1], the inhibition of growth at 5 µM was -15.8%. For `O=S(=O)(O)CCSSCCS(=O)(=O)O` [Dimesna], the inhibition of growth at 5 µM under setting [3] is -0.8%.

Turning to `CCCC(CCC)C(=O)O` [Divalproex sodium], the inhibition of growth at 5 µM under setting [3] was 1.4%.

Regarding `C[C@@H](O)[C@H]1C(=O)N2C(C(=O)O)=C(S[C@@H]3CN[C@H](CNS(N)(=O)=O)C3)[C@H](C)[C@H]12` [Doripenem Hydrate], the inhibition of growth at 5 µM under setting [1] came to 0.8%. Turning to `C=C1/C(=C/C=C2\CCC[C@@]3(C)[C@H]2CC[C@H]3[C@H](C)/C=C/[C@@H](C)C(C)C)C[C@H](O)C[C@@H]1O` [Doxercalciferol (Hectorol)], the inhibition of growth at 5 µM under setting [1] was 0.1%. As to `CCCCc1oc2ccc(NS(C)(=O)=O)cc2c1C(=O)c1ccc(OCCCN(CCCC)CCCC)cc1` [Dronedarone HCl (Multaq)], the inhibition of growth at 5 µM under setting [1] came to 2.5%.

As for `N[C@H](C(=O)O)[C@H](O)c1ccc(O)c(O)c1` [Droxidopa (L-DOPS)], under setting [1], the inhibition of growth at 5 µM worked out at 39.8%.

With `CN(NC(=O)CC(=O)NN(C)C(=S)c1ccccc1)C(=S)c1ccccc1` [Elesclomol], the inhibition of growth at 5 µM under setting [3] stood at 0.9%. Regarding `C[C@H](N[C@@H](CCc1ccccc1)C(=O)O)C(=O)N1CCC[C@H]1C(=O)O` [Enalaprilat dihydrate], under setting [3], the inhibition of growth at 5 µM is 33.9%. For `C=C1[C@H](CO)[C@@H](O)C[C@@H]1n1cnc2c(=O)[nH]c(N)nc21` [Entecavir hydrate], the inhibition of growth at 5 µM under setting [1] was found to be 9.8%. The same measure, in the same setting: the same measure for `Oc1ccc([C@H]2COc3cc(O)ccc3C2)cc1` [Equol]: -5.6%. On to `COc1ccc2[nH]c([S+]([O-])Cc3ncc(C)c(OC)c3C)nc2c1` (stereo not shown) [Esomeprazole magnesium (Nexium)], for which, under setting [3], the inhibition of growth at 5 µM came out at 1.6%. Take `COc1ccc2[nH]c([S+]([O-])Cc3ncc(C)c(OC)c3C)nc2c1` (stereo not shown) [Esomeprazole sodium (Nexium)]: the inhibition of growth at 5 µM under setting [1] stood at 14.2%. For `Cc1cc(C#N)cc(C)c1Oc1nc(Nc2ccc(C#N)cc2)nc(N)c1Br` [Etravirine (TMC125)], the inhibition of growth at 5 µM under setting [1] was found to be 0%. As to `Cc1nc(C(=O)NCC(=O)O)c(O)c2ccc(Oc3ccccc3)cc12` [FG-4592], the inhibition of growth at 5 µM under setting [3] turned out to be 1.3%. As to `CC(C(=O)[O][Ca][O]C(=O)C(C)c1cccc(Oc2ccccc2)c1)c1cccc(Oc2ccccc2)c1` (stereo not shown) [Fenoprofen calcium], the inhibition of growth at 5 µM under setting [1] was found to be 27.4%. Still for that read-out and setting: the figure for `Clc1ccc(C(Cn2ccnc2)OCc2ccc(Sc3ccccc3)cc2)c(Cl)c1` (stereo not shown) [Fenticonazole nitrate] is 19.8%; for `CC(C)C(=O)Oc1ccc(CO)cc1[C@H](CCN(C(C)C)C(C)C)c1ccccc1` [Fesoterodine fumarate (Toviaz)] it is 0.2%; for `C[C@@H](C(=O)O)c1ccc(-c2ccccc2)c(F)c1` [Flurbiprofen (Ansaid)] it is -23.7%. For `C[C@@H](O[C@H]1OCCN(Cc2nn(P(=O)(O)O)c(=O)[nH]2)[C@H]1c1ccc(F)cc1)c1cc(C(F)(F)F)cc(C(F)(F)F)c1` [Fosaprepitant dimeglumine], the inhibition of growth at 5 µM under setting [1] is -2.8%.

Turning to `CCC(=O)O[C@@H](OP(=O)(CCCCc1ccccc1)CC(=O)N1C[C@H](C2CCCCC2)C[C@H]1C(=O)O)C(C)C` (stereo partly shown) [Fosinopril sodium (Monopril)], the inhibition of growth at 5 µM under setting [3] is 21.3%. Turning to `N[C@@H](CSCCCO)C(=O)O` [Fudosteine], the inhibition of growth at 5 µM under setting [1] worked out at 11%. With `C[C@@H](Oc1cc(-n2cnc3ccc(CN4CCN(C)CC4)cc32)sc1C(N)=O)c1ccccc1C(F)(F)F` [GSK461364], under setting [3], the inhibition of growth at 5 µM turned out to be 6.6%.

With `CC(C)c1noc(N2CCC(COc3ccc(-c4ccc(S(C)(=O)=O)cc4)nc3)CC2)n1` [GSK1292263], the inhibition of growth at 5 µM under setting [3] worked out at 0.7%. `Cc1c(Cn2c(C)nc3c(C(=O)O)cc(N4CCOCC4)cc32)cccc1C(F)(F)F` [GSK2636771]: the inhibition of growth at 5 µM under setting [1] was found to be 1.7%. On the same count and under the same terms, the figure for `Cc1cc(SCc2sc(-c3ccc(C(F)(F)F)c(F)c3)nc2C)ccc1OCC(=O)O` [GW0742] is 23.4%. Regarding `CC(C)c1onc(-c2c(Cl)cccc2Cl)c1COc1ccc(/C=C/c2cccc(C(=O)O)c2)c(Cl)c1` [GW4064], the inhibition of growth at 5 µM under setting [1] is -7.7%. Turning to `O=C(NCC1CCOCC1)c1cnc(Nc2ccc(Cl)cc2Cl)nc1C(F)(F)F` [GW842166X], the inhibition of growth at 5 µM under setting [1] is -12%.
